Series [1] can be described thus: Ion flotation of arsenic solution in bubble column, As by ICP-MS. To be noted: for Adsorption (%) / arsenic removal: time not stated; for Arsenic removal after 90 minutes / arsenic removal: flotation; for Arsenic removal after 90 minutes: 5 ppm arsenic solution. The procedure: (§1) An ICP-MS (Perkin Elmer, NexION 300D with Universal cell technology) was used to determine the arsenic, mercury and lead solution concentrations.
In a typical experiment, 0.01 M of the single chain octanoyl-cysteine surfactant was dissolved (with stirring and heating to not more than 65° C.) in a solution of arsenic (HAsO4^2−) 5 ppm containing NaOH 0.1 M (to keep the pH at about 8), which was then made up to 100 ml using Milli-Q water.
Two samples were taken after 30, 60 and 90 minutes and the arsenic concentration of each sample was determined by ICP-MS. The upper outlet foam was also collected in a waste container using an outlet tube. […]

The nature of series [2]: Ion flotation of lead ions with octanoyl-cysteine surfactant. To be noted: 5 ppm Pb, 0.01M surfactant. The procedure:
as §1
(§2) In similar ion flotation experiments, the removal rates for low levels of mercury and lead ions were also determined using the octanoyl-cysteine surfactant. The experiments were carried out using both air and pure N2 gas.

Series [3] in a line: Ion flotation of mercury ions with octanoyl-cysteine surfactant. Conditions: 5 ppm Hg, 0.01M surfactant. The procedure:
as §1, §2

The conditions of series [4]: for As(III) / As(V) / Total As removal / Total As(V) reduced to As(III) / Total conc.: feed 5320.6 μg/L, 0.01M surfactant. The procedure: The As(V)/As(III) speciation measurements were carried out using a PE 200 Series HPLC, using a PRPX 100 Column, attached to a PE DRC-e (Dynamic Reaction Cell-e) ICPMS. 20 milli molar ammonium phosphate buffer was used as carrier solution at 1.5 ml/min with a matched Meinhart nebuliser and baffled spray chamber. The plasma conditions used were: 1500 W RF, at a gas flow rate of […].
Column solution samples after 30 minutes, and the solution remaining inside the column after 90 minutes, were sent for arsenic speciation determination analysis. It appears that after about half an hour the maximum adsorption of arsenic was obtained because no further foam was collected at the top of the column.

The nature of series [5]: Foaming test. To be noted: about one tenth of CMC in water, shaken with air, Passed/Failed. It is filed as physicochemical. The procedure: A foaming test was performed by dissolving the test compound in water at a concentration of approximately one tenth of the CMC of the test compound. The solution was then placed in a stoppered vessel with air and shaken and a visual observation made as to whether a stable foam had been formed.

For series [6] the following is noted: literature value (footnotes a-d); cited from earlier work.
Series [7] is described as follows: Solubility in water. Conditions: for Solubility in water up to minimum 0.01M: Yes/No.
From the text: The synthesized surfactants were compared to each other with respect to their water solubility, conductivity, critical micelle concentration and foaming ability to determine basic suitability for the ion flotation process.
Series [8] is described as follows: Critical micelle concentration (CMC) in water. It is filed as physicochemical. The text has this:
In the bulk aqueous phase, surfactants form aggregates, such as micelles, at concentrations above the critical micelle concentration (CMC), where the hydrophobic tails form the core of the aggregate and the hydrophilic heads are in contact with the surrounding liquid. The CMC of a surfactant in an aqueous solution can be determined by a person skilled in the art using techniques known in the art. For example, the CMC of a surfactant can be determined by measuring changes in the conductance or surface tension of the solution at different concentrations of the surfactant.

Setting [9] is: 5 ppm As, 0.01M surfactant, inlet gas Air.
[10] abbreviates: As in the waste collector (after 30 mins.).
[11] abbreviates: As remaining in the flotation cell (after 90 mins).

Molecules are shown by their SMILES. Converted amounts (≈) assume the structure as drawn. “And” between values parts separate entries of the source, which are not always exact repeats. Equal entries are not always repeated. Where two headings read alike, the source gives them in different places. Marks after values point to notes of the source that are not given here.

As to `CCCCCCCC(=O)N[C@@H](CS)C(=O)O` [octanoyl-cysteine], the “Adsorption after 30 min (%)” value in series [1] (setting [9]) was determined as 72.6%; in series [2] (inlet gas Air), 92%; in series [2] (inlet gas N2) it was 94.9%; in series [3] (inlet gas Air), 99.6%; in series [3] (inlet gas N2) it was 99.59%. For the same compound, the “Adsorption after 60 min (%)” value stood at 99.88% in series [1] (setting [9]); 99.1% in series [2] (inlet gas Air); 99.4% in series [2] (inlet gas N2); 99.6% in series [3] (inlet gas Air); 99.96% in series [3] (inlet gas N2). For the same compound, the “Adsorption (%)” value in series [1] (100 ml of 5 ppm arsenic solution, purified product, Air) is 99.9 (Air) %; in series [1] (100 ml of 5 ppm arsenic solution, purified product, N2 gas, listed as single chain octanoyl cysteine), 98.6 (N2) % and 99.4 (N2) %; in series [1] (100 ml of 5 ppm arsenic solution, raw product, N2 gas, listed as single chain octanoyl cysteine), 93.8 (N2) % and 88.2 (N2) %. Besides, the “Arsenic removal after 90 minutes” value in series [1] was 99.4%. This compound returned an arsenic removal in series [1] of 99.00%. Also, the “average removal of arsenic” value in series [1] (tests 1 and 2, raw unpurified product, 5 ppm feeding solution, after 90 minutes) was found to be 91.00%; in series [1] (tests 3 and 4, purified (2 times recrystallized) product, after 30 minutes) it was 99.00%. The “As(III)” value is 5259.4 µg/L in series [4] (setting [10]) and 6.2 µg/L in series [4] (setting [11]). In addition, the entries for the “As(V)” value in series [4] (setting [10]) and in series [4] (setting [11]) were 27.9 µg/L and 27.1 µg/L, respectively. The “Total As removal” value is 99.38% in series [4] (setting [10]); 99.38% in series [4] (setting [11]); 99.38% in series [4] (As remaining in the flotation cell (after 90 mins), listed as single chain octanoyl-cysteine). The “Total As(V) reduced to As(III)” value in series [4] (setting [10]) is 99.47%; in series [4] (As in the waste collector (after 30 mins.), listed as single chain octanoyl-cysteine) it was “about 99.47%”; in series [4] (setting [11]) it was 99.49%. Moreover, the “Total conc.” value in series [4] (setting [10]) was 5287.4 µg/L; in series [4] (setting [11]), 33.2 µg/L. In series [4] (between the first 30 mins and 90 minutes, samples from inside the column), the “As (V) remaining in the column reduced to As (III)” value came out at 0.02%. Also, the Foaming test entry in series [5] is “Passed”. For the same compound, in series [6], the “CMC in water (M)” value is 0.12*^a M. For the same compound, the “Solubility in water up to minimum 0.01M” value in series [7] is “Yes”.

For the compound `CCCCCCCCCCCC(=O)N[C@@H](CS)C(=O)O`, the Foaming test entry in series [5] was “Passed”. The “CMC (in words)” value in series [8] is listed as “low CMC values”. In addition, the “CMC in water (M)” value in series [6] was 0.02 × 10^−3*^d M. Besides, in series [7], the “solubility in water (in words)” value is recorded as “low solubility in water” and the “Solubility in water up to minimum 0.01M” value is recorded as “No”. Moreover, in series [7] (water), the concentration in solution (solubility) came to 300 µM (≈ 91 µg/mL).

As for `CCCCCCCCNC(=O)N[C@@H](CSSC[C@H](NC(=O)NCCCCCCCC)C(=O)O)C(=O)O` [D-octyl isocyanate cystine], the figures for the Foaming test entry in series [5] and in series [5] (listed as double chain-octyl isocyanate cystine) were “Failed” and “produced no foaming in solution”, respectively. Further, the “CMC (in words)” value in series [8] is “acceptably high CMC values”. Also, the “CMC in water (M)” value in series [6] was 0.008*^c M.

As to `CCCCCCCCSC[C@H](N)C(=O)O` [S-octyl cysteine, reference compound], the “Adsorption after 30 min (%)” value in series [1] (100 ml of 5 ppm arsenic solution, surfactant 0.001 M (D-dodecanoyl cystine 0.01 × 10^−3 M)) worked out at 0%. In series [1], the “Arsenic removal after 90 minutes” value was 0% and the arsenic removal result is recorded as “no arsenic removal was observed”. Besides, the Foaming test result in series [5] is given as “Failed”. Besides, the Foaming test result in series [5] (listed as single chain octyl based cysteine surfactant) is listed as “failed the foaming test”. Moreover, the “CMC (in words)” value in series [8] is listed as “high CMC”. Further, the “CMC in water (M)” value in series [6] is 0.006*^b M. In addition, in series [7], the “solubility in water (in words)” value is “good solubility” and the “Solubility in water up to minimum 0.01M” value is “Yes”.

The term solubility denotes how much of the substance goes into solution per volume. Read a low solubility as little dissolved substance.

The values above are taken from US11472723B2, “Method for removing heavy metals from an aqueous solution” (NEWSOUTH INNOVATIONS PTY LIMITED, priority 2016, dated 2022).
